# Laboratory results: PMC3018327 (Nature immunology, 2010)
# Columns and labels:
# [1] = biological target: HLA-DM (Homo sapiens, UniProt P28067+P28068, N110D/N191D); assay: SPR; details: complexes 5 μM injected 2 min, pH 5.35, 15 μl/min, 25 °C, Fig. 4d-f
# [2] = system: DR1 linked to DM; details: leucine zipper dimerization domains attached to DMβ and DRβ chains; cited from earlier work
# [3] = system: DR1; details: cited from earlier work
# [4] = system: DR4; details: cited from earlier work
# [5] = system: DM-DR2 complex; assay: SPR peptide-induced dissociation of the complex of DM and empty DR2; assay type: binding, human; details: SPR stage 3, peptide 1 μM, pH 5.35, 30 °C; Fig. 1e
# Sequence of HLA-DM (P28067 27-233 N191D): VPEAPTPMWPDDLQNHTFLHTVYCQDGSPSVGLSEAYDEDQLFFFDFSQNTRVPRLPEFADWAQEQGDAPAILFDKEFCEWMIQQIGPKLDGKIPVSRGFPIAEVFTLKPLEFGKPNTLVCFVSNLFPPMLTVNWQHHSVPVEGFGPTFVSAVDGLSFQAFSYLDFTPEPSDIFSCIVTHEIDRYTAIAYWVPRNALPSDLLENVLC
# Sequence of HLA-DM (P28068 19-218 N110D): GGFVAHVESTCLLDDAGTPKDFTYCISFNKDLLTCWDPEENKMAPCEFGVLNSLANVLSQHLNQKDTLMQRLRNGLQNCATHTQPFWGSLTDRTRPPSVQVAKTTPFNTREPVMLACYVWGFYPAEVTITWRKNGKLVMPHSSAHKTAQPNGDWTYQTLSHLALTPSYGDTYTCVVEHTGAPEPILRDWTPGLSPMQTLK
Substance,DM binding of DR1 complexes with disulfide-linked HA6 or HA3 peptides [1],also measured
VKQNCLKLAT [HA6 P2–P11],strong DM binding,
PVSKMRMATPLLMQA [CLIP],,t1/2 of peptide dissociation from DR1 forcibly linked to DM [2]: 10 s; affinity of CLIP for DR1 [3]: high affinity; affinity of CLIP for DR4 [4]: very low affinity
"MBP85-99: high-affinity peptide from myelin basic protein (amino acids 85–99) (PGSRPHLIRLFSRDA; UniProt P02686 85-99, looked up, fragment)",,peptide-induced dissociation of DR2 from DM [5]: induced dissociation of DR2 from DM
PKAVKQNCLKLAT [HA6 P1A],only low amounts of DM binding,

# More lines, main results first:
DM binding of DR1 complexes with disulfide-linked HA6 or HA3 peptides [1],Substance,also measured
not sufficient for DM binding,KYVKQNCLKLAT [HA6 P-1–P11],
rapid binding,VCQNTLKLAT [HA3 P2–P11],
not sufficient for DM binding,YVKQNCLKLAT [HA6 P1–P11],
appeared to slow DM binding,CQNTLKLAT [HA3 P3 P11],
did not permit DM binding,Me-YVCQNTLKLAT [HA3 P1me–P11],
